Experimental data published in PubChem BioAssay (NCI).
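How tested: cells in 96-well plates exposed to compound for 48 hours at five concentrations. At the GI50, growth is halved. Definition used: TGI = concentration required for complete inhibition of growth.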

Experiments:
Assay in all cases: NCI anticancer screen, dose series, 48 h
[1] = tested on: 786-0 renal
[2] = tested on: A498 renal
[3] = tested on: A549 NSCLC
[4] = tested on: ACHN renal
[5] = tested on: BT-549 breast
[6] = tested on: CAKI-1 renal
[7] = tested on: CCRF-CEM leukemia
[8] = tested on: COLO 205 colon
[9] = tested on: DU-145 prostate
[10] = tested on: EKVX NSCLC
[11] = tested on: HCC-2998 colon
[12] = tested on: HCT-116 colon
[13] = tested on: HCT-15 colon
[14] = tested on: HL-60(TB) leukemia
[15] = tested on: HOP-62 NSCLC
[16] = tested on: HOP-92 NSCLC
[17] = tested on: HS 578T breast
[18] = tested on: HT29 colon
[19] = tested on: IGROV1 ovarian
[20] = tested on: K-562 leukemia
[21] = tested on: KM12 colon
[22] = tested on: LOX IMVI melanoma
[23] = tested on: M14 melanoma
[24] = tested on: MALME-3M melanoma
[25] = tested on: MCF7 breast
[26] = tested on: MDA-MB-231 breast
[27] = tested on: MDA-MB-435
[28] = tested on: MOLT-4 leukemia
[29] = tested on: NCI-H226 lung
[30] = tested on: NCI-H23 lung
[31] = tested on: NCI-H460 lung
[32] = tested on: NCI-H522 lung
[33] = tested on: NCI/ADR-RES ovarian
[34] = tested on: OVCAR-3 ovarian
[35] = tested on: OVCAR-4 ovarian
[36] = tested on: OVCAR-5 ovarian
[37] = tested on: OVCAR-8 ovarian
[38] = tested on: PC-3 prostate
[39] = tested on: RPMI-8226 leukemia
[40] = tested on: RXF 393 renal
[41] = tested on: SF-268 CNS
[42] = tested on: SF-295 CNS
[43] = tested on: SF-539 CNS
[44] = tested on: SK-MEL-2 melanoma
[45] = tested on: SK-MEL-28 melanoma
[46] = tested on: SK-MEL-5 melanoma
[47] = tested on: SK-OV-3 ovarian
[48] = tested on: SN12C renal
[49] = tested on: SNB-19 CNS
[50] = tested on: SNB-75 CNS
[51] = tested on: SR leukemia
[52] = tested on: SW-620 colon
[53] = tested on: T-47D breast
[54] = tested on: TK-10 renal
[55] = tested on: U251 CNS
[56] = tested on: UACC-257 melanoma
[57] = tested on: UACC-62 melanoma
[58] = tested on: UO-31 renal

N#Cc1c(-c2ccccc2)cc(-c2ccccc2)n(CCCC(=O)NO)c1=O
GI50 [1]: 1.6 µM | TGI [1]: 5.85 µM | GI50 [2]: 0.788 µM | TGI [2]: 2.95 µM | GI50 [3]: 2.2 µM | TGI [3]: 7.95 µM | GI50 [4]: 0.494 µM | TGI [4]: 3.59 µM | GI50 [5]: 2.77 µM | TGI [5]: 14.1 µM | GI50 [6]: 0.473 µM | TGI [6]: 2.65 µM | GI50 [7]: 0.847 µM | TGI [7]: 7.15 µM | GI50 [8]: 1.97 µM | TGI [8]: 4.97 µM | GI50 [9]: 2.66 µM | TGI [9]: 10.5 µM | GI50 [10]: 1.8 µM | TGI [10]: 7.81 µM | GI50 [11]: 2.17 µM | TGI [11]: 8.66 µM | GI50 [12]: 1.67 µM | TGI [12]: 6.7 µM | GI50 [13]: 0.434 µM | TGI [13]: 10.7 µM | GI50 [14]: 1.81 µM | TGI [14]: 5.43 µM | GI50 [15]: 2 µM | TGI [15]: 6.98 µM | GI50 [16]: 1.97 µM | TGI [16]: 7.53 µM | GI50 [17]: 1.81 µM | TGI [17]: 8.5 µM | GI50 [18]: 2.58 µM | TGI [18]: 8.58 µM | GI50 [19]: 1.69 µM | TGI [19]: 4.77 µM | GI50 [20]: 0.729 µM | TGI [20]: 12.9 µM | GI50 [21]: 1.1 µM | TGI [21]: 11.8 µM | GI50 [22]: 1.63 µM | TGI [22]: 3.41 µM | GI50 [23]: 0.898 µM | TGI [23]: 10.1 µM | GI50 [24]: 0.704 µM | TGI [24]: 11.5 µM | GI50 [25]: 1.7 µM | TGI [25]: 10.6 µM | GI50 [26]: 2.9 µM | TGI [26]: 10.4 µM | GI50 [27]: 0.324 µM | TGI [27]: 10.7 µM | GI50 [28]: 1.22 µM | TGI [28]: 5.98 µM | GI50 [29]: 2.24 µM | TGI [29]: 7.41 µM | GI50 [30]: 2.77 µM | TGI [30]: 9.94 µM | GI50 [31]: 1.72 µM | TGI [31]: 8.78 µM | GI50 [32]: 1.33 µM | TGI [32]: 5.89 µM | GI50 [33]: 0.541 µM | TGI [33]: 3.72 µM | GI50 [34]: 1.61 µM | TGI [34]: 4.6 µM | GI50 [35]: 1.92 µM | TGI [35]: 11.8 µM | GI50 [36]: 2.3 µM | TGI [36]: 8.43 µM | GI50 [37]: 1.14 µM | TGI [37]: 8.67 µM | GI50 [38]: 2.13 µM | TGI [38]: 14.4 µM | GI50 [39]: 1.14 µM | TGI [39]: 3.8 µM | GI50 [40]: 0.939 µM | TGI [40]: 2.74 µM | GI50 [41]: 2.31 µM | TGI [41]: 6.72 µM | GI50 [42]: 2.15 µM | TGI [42]: 5.02 µM | GI50 [43]: 1.68 µM | TGI [43]: 5.03 µM | GI50 [44]: 2.02 µM | TGI [44]: 10 µM | GI50 [45]: 2.88 µM | TGI [45]: 12.7 µM | GI50 [46]: 1.89 µM | TGI [46]: 4.74 µM | GI50 [47]: 1.98 µM | TGI [47]: 5.23 µM | GI50 [48]: 2.34 µM | TGI [48]: 10.3 µM | GI50 [49]: 2.7 µM | TGI [49]: 13 µM | GI50 [50]: 1.24 µM | TGI [50]: 4.85 µM | GI50 [51]: 0.361 µM | TGI [51]: 3.65 µM | GI50 [52]: 1.93 µM | TGI [52]: 12.6 µM | GI50 [53]: 1.83 µM | TGI [53]: 8.34 µM | GI50 [54]: 1 µM | TGI [54]: 11.1 µM | GI50 [55]: 1.69 µM | TGI [55]: 4.62 µM | GI50 [56]: 1.73 µM | TGI [56]: 7.38 µM | GI50 [57]: 1.82 µM | TGI [57]: 5.63 µM | GI50 [58]: 0.392 µM | TGI [58]: 2.3 µM

COc1cc(/C=N/n2c(-c3ccccc3)n[nH]c2=O)cc(OC)c1OC
TGI [1]: 48.2 µM | TGI [2]: 17.4 µM | TGI [3]: > 100 µM | TGI [4]: 40.5 µM | TGI [5]: 18.6 µM | TGI [6]: 21.7 µM | TGI [7]: > 100 µM | TGI [8]: > 100 µM | TGI [9]: > 76.2 µM | TGI [10]: > 100 µM | TGI [11]: > 100 µM | TGI [12]: > 100 µM | TGI [13]: > 100 µM | TGI [14]: > 100 µM | TGI [15]: 33.1 µM | TGI [16]: > 82.2 µM | TGI [17]: 20.2 µM | TGI [18]: > 100 µM | TGI [19]: > 100 µM | TGI [20]: > 100 µM | TGI [21]: > 100 µM | TGI [22]: > 100 µM | TGI [23]: > 100 µM | TGI [24]: 48.8 µM | TGI [25]: > 100 µM | TGI [26]: > 61.8 µM | TGI [27]: 6.43 µM | TGI [28]: > 100 µM | TGI [29]: > 100 µM | TGI [30]: > 71.8 µM | TGI [31]: > 100 µM | TGI [32]: > 58.1 µM | TGI [33]: 9.96 µM | TGI [34]: > 37.5 µM | TGI [35]: > 100 µM | TGI [36]: > 100 µM | TGI [37]: > 100 µM | TGI [38]: > 100 µM | TGI [39]: > 100 µM | TGI [40]: 29.8 µM | TGI [41]: 40.7 µM | TGI [42]: 18 µM | TGI [43]: 39.1 µM | TGI [44]: > 59 µM | TGI [45]: > 100 µM | TGI [46]: > 100 µM | TGI [47]: > 25 µM | TGI [48]: > 100 µM | TGI [49]: > 43.1 µM | TGI [50]: > 30.2 µM | TGI [51]: > 100 µM | TGI [52]: > 100 µM | TGI [53]: > 100 µM | TGI [54]: > 65.9 µM | TGI [55]: > 42.3 µM | TGI [56]: > 100 µM | TGI [57]: > 100 µM | TGI [58]: > 100 µM
